# In US20260256792A1, “TREATMENT OF CHRONIC SPONTANEOUS URTICARIA BY ADMINISTERING (R)-2-[3-[4-AMINO-3-(2-FLUORO-4-PHENOXY-PHENYL)PYRAZOLO[3,4-D]PYRIMIDIN-1-YL]PIPERIDINE-1-CARBONYL]-4-METHYL-4-[4-(OXETAN-3-YL)PIPERAZIN-1-YL]PENT-2-ENENITRILE” (priority 2023, published 2026):
# Tested on: moderate-to-severe chronic spontaneous urticaria (CSU)
# Assay: Phase 2 CSU study: itch severity score over 7 days (ISS7)
# Assay type: in vivo, human
# Conditions: ITT
# From the text: The study comprises a 12 week, randomized, double-blind, placebo-controlled, multi-center, dose-ranging efficacy and safety phase, followed by a 40 week open label extension (OLE) phase (see FIG. 1). The study consists of three phases and an optional OLE phase. […] Clinically, CSU is characterized by the spontaneous and recurrent appearance of pruritic hives. The proposed primary endpoints were the UAS7 at Week 12 in EU and EU reference countries and the ISS7 in the US. Regardless of where a participant was from, all assessments were the same. The UAS7 score is a composite score containing both the HSS7 and the ISS7. This allowed a global assessment of the two key components of urticaria: hives and itch. […] The UAS is a validated PRO measure. […] The daily UAS scores range from 0 to 6 point/day. […] Patients were to complete the UAS using the e-diary. […] The following secondary endpoints were to be analyzed using the same approach as for the primary endpoint: • Change from baseline in UAS7 at Week 4 • Change from baseline in UAS7 at Week 12 (for US and US reference countries) • Change from baseline in ISS7 at Week 12 (except US and US reference countries) • Change from baseline in HSS7 at Week 12
smiles,measurement,setting,value
"CC(C)(C=C(C#N)C(=O)N1CCC[C@@H](n2nc(-c3ccc(Oc4ccccc4)cc3F)c3c(N)ncnc32)C1)N1CCN(C2COC2)CC1 [rilzabrutinib, (R)-2-[3-[4-amino-3-(2-fluoro-4-phenoxy-phenyl)pyrazolo[3,4-d]pyrimidin-1-yl]piperidine-1-carbonyl]-4-methyl-4-[4-(oxetan-3-yl)piperazin-1-yl]pent-2-enenitrile]",ISS7 Change difference for rilzabrutinib vs. placebo LS Mean (95% CI),"400 mg BID, Week 2",−2.27
same,ISS7 Change from baseline LS Mean (SE),"400 mg BID, Week 2",−5.68 (0.80)
same,ISS7 Post-baseline Mean (SD),"400 mg BID, Week 2",10.40 (5.75)
same,ISS7 % Change difference for rilzabrutinib vs. placebo LS Mean (95% CI),"400 mg BID, Week 3",−18.44%
same,ISS7 % Change from baseline LS Mean (SE),"400 mg BID, Week 3",−40.88 (5.26) %
same,ISS7 Change difference for rilzabrutinib vs. placebo LS Mean (95% CI),"400 mg BID, Week 3",−2.60
same,ISS7 Change from baseline LS Mean (SE),"400 mg BID, Week 3",−6.68 (0.84)
same,ISS7 Post-baseline Mean (SD),"400 mg BID, Week 3",9.21 (6.17)
same,ISS7 % Change difference for rilzabrutinib vs. placebo LS Mean (95% CI),"400 mg BID, Week 4",−18.54%
same,ISS7 % Change from baseline LS Mean (SE),"400 mg BID, Week 4",−44.30 (5.62) %
same,ISS7 Change difference for rilzabrutinib vs. placebo LS Mean (95% CI),"400 mg BID, Week 4",−2.62
same,ISS7 Change from baseline LS Mean (SE),"400 mg BID, Week 4",−7.24 (0.89)
same,ISS7 Post-baseline Mean (SD),"400 mg BID, Week 4",8.12 (6.28)
same,ISS7 % Change difference for rilzabrutinib vs. placebo LS Mean (95% CI),"400 mg BID, Week 5",−9.84%
same,ISS7 % Change from baseline LS Mean (SE),"400 mg BID, Week 5",-43.1%
same,ISS7 Change difference for rilzabrutinib vs. placebo LS Mean (95% CI),"400 mg BID, Week 5",−1.32
same,ISS7 Change from baseline LS Mean (SE),"400 mg BID, Week 5",−6.89 (0.88)
same,ISS7 Post-baseline Mean (SD),"400 mg BID, Week 5",8.53 (6.95)
same,ISS7 % Change difference for rilzabrutinib vs. placebo LS Mean (95% CI),"400 mg BID, Week 6",−13.75%
same,ISS7 % Change from baseline LS Mean (SE),"400 mg BID, Week 6",−42.18 (5.84) %
same,ISS7 Change difference for rilzabrutinib vs. placebo LS Mean (95% CI),"400 mg BID, Week 6",−1.99
same,ISS7 Change from baseline LS Mean (SE),"400 mg BID, Week 6",−6.87 (0.93)
same,ISS7 Post-baseline Mean (SD),"400 mg BID, Week 6",8.62 (6.58)
same,ISS7 % Change difference for rilzabrutinib vs. placebo LS Mean (95% CI),"400 mg BID, Week 7",−18.93%
same,ISS7 % Change from baseline LS Mean (SE),"400 mg BID, Week 7",−47.79 (5.68) %
same,ISS7 Change difference for rilzabrutinib vs. placebo LS Mean (95% CI),"400 mg BID, Week 7",−2.77
same,ISS7 Change from baseline LS Mean (SE),"400 mg BID, Week 7",−7.77 (0.91)
same,ISS7 Post-baseline Mean (SD),"400 mg BID, Week 7",8.03 (6.39)
same,ISS7 % Change difference for rilzabrutinib vs. placebo LS Mean (95% CI),"400 mg BID, Week 8",−20.00%
same,ISS7 % Change from baseline LS Mean (SE),"400 mg BID, Week 8",−52.80 (5.92) %
same,ISS7 Change difference for rilzabrutinib vs. placebo LS Mean (95% CI),"400 mg BID, Week 8",−2.86
same,ISS7 Change from baseline LS Mean (SE),"400 mg BID, Week 8",−8.47 (0.93)
same,ISS7 Post-baseline Mean (SD),"400 mg BID, Week 8",7.18 (6.69)
same,ISS7 % Change difference for rilzabrutinib vs. placebo LS Mean (95% CI),"400 mg BID, Week 9",−20.94%
same,ISS7 % Change from baseline LS Mean (SE),"400 mg BID, Week 9",−51.80 (5.94) %
same,ISS7 Change difference for rilzabrutinib vs. placebo LS Mean (95% CI),"400 mg BID, Week 9",−2.77
same,ISS7 Change from baseline LS Mean (SE),"400 mg BID, Week 9",−8.27 (0.96)
same,ISS7 Post-baseline Mean (SD),"400 mg BID, Week 9",7.44 (7.20)
same,ISS7 % Change difference for rilzabrutinib vs. placebo LS Mean (95% CI),"400 mg BID, Week 10",−10.95%
same,ISS7 % Change from baseline LS Mean (SE),"400 mg BID, Week 10",−48.75 (6.31) %
same,ISS7 Change difference for rilzabrutinib vs. placebo LS Mean (95% CI),"400 mg BID, Week 10",−1.72
same,ISS7 Change from baseline LS Mean (SE),"400 mg BID, Week 10",−8.01 (1.01)
same,ISS7 Post-baseline Mean (SD),"400 mg BID, Week 10",8.06 (7.29)
same,ISS7 % Change difference for rilzabrutinib vs. placebo LS Mean (95% CI),"400 mg BID, Week 11",−15.82%
same,ISS7 % Change from baseline LS Mean (SE),"400 mg BID, Week 11",−49.45 (6.23) %
same,ISS7 Change difference for rilzabrutinib vs. placebo LS Mean (95% CI),"400 mg BID, Week 11",−2.07
same,ISS7 Change from baseline LS Mean (SE),"400 mg BID, Week 11",−7.93 (0.99)
same,ISS7 Post-baseline Mean (SD),"400 mg BID, Week 11",7.76 (7.01)
same,ISS7 % Change difference for rilzabrutinib vs. placebo LS Mean (95% CI),"400 mg BID, Week 12",−13.69%
same,ISS7 % Change from baseline LS Mean (SE),"400 mg BID, Week 12",−50.27 (6.54) %
same,ISS7 Change difference for rilzabrutinib vs. placebo LS Mean (95% CI),"400 mg BID, Week 12",−1.75
same,ISS7 Change from baseline LS Mean (SE),"400 mg BID, Week 12",−8.06 (1.02)
same,ISS7 Post-baseline Mean (SD),"400 mg BID, Week 12",7.61 (7.18)
same,ISS7 % Change difference for rilzabrutinib vs. placebo LS Mean (95% CI),"400 mg QPM, Week 1",−8.87%
same,ISS7 % Change from baseline LS Mean (SE),"400 mg QPM, Week 1",−19.33 (5.35) %
same,ISS7 Change difference for rilzabrutinib vs. placebo LS Mean (95% CI),"400 mg QPM, Week 1",−1.47
same,ISS7 Change from baseline LS Mean (SE),"400 mg QPM, Week 1",−3.47 (0.79)
same,ISS7 Post-baseline Mean (SD),"400 mg QPM, Week 1",13.08 (4.46)
same,ISS7 % Change difference for rilzabrutinib vs. placebo LS Mean (95% CI),"400 mg QPM, Week 2",−5.64%
same,ISS7 % Change from baseline LS Mean (SE),"400 mg QPM, Week 2",−25.13 (5.32) %
same,ISS7 Change difference for rilzabrutinib vs. placebo LS Mean (95% CI),"400 mg QPM, Week 2",−0.86
same,ISS7 Change from baseline LS Mean (SE),"400 mg QPM, Week 2",−4.27 (0.81)
same,ISS7 Post-baseline Mean (SD),"400 mg QPM, Week 2",12.44 (4.70)
same,ISS7 % Change difference for rilzabrutinib vs. placebo LS Mean (95% CI),"400 mg QPM, Week 3",−7.34%
same,ISS7 % Change from baseline LS Mean (SE),"400 mg QPM, Week 3",−29.78 (5.33) %
same,ISS7 Change difference for rilzabrutinib vs. placebo LS Mean (95% CI),"400 mg QPM, Week 3",−0.97
same,ISS7 Change from baseline LS Mean (SE),"400 mg QPM, Week 3",−5.06 (0.85)
same,ISS7 % Change difference for rilzabrutinib vs. placebo LS Mean (95% CI),"400 mg QPM, Week 4",−5.09%
same,ISS7 % Change from baseline LS Mean (SE),"400 mg QPM, Week 4",−30.86 (5.64) %
same,ISS7 Change difference for rilzabrutinib vs. placebo LS Mean (95% CI),"400 mg QPM, Week 4",−0.67
same,ISS7 Change from baseline LS Mean (SE),"400 mg QPM, Week 4",−5.29 (0.90)
same,ISS7 Post-baseline Mean (SD),"400 mg QPM, Week 4",11.30 (4.76)
same,ISS7 % Change difference for rilzabrutinib vs. placebo LS Mean (95% CI),"400 mg QPM, Week 5",0.86%
same,ISS7 % Change from baseline LS Mean (SE),"400 mg QPM, Week 5",−32.42 (5.42) %
same,ISS7 Change difference for rilzabrutinib vs. placebo LS Mean (95% CI),"400 mg QPM, Week 5",0.08
same,ISS7 Change from baseline LS Mean (SE),"400 mg QPM, Week 5",−5.48 (0.88)
same,ISS7 Post-baseline Mean (SD),"400 mg QPM, Week 5",11.00 (4.61)
same,ISS7 % Change difference for rilzabrutinib vs. placebo LS Mean (95% CI),"400 mg QPM, Week 6",−8.64%
same,ISS7 % Change from baseline LS Mean (SE),"400 mg QPM, Week 6",−37.07 (5.96) %
same,ISS7 Change difference for rilzabrutinib vs. placebo LS Mean (95% CI),"400 mg QPM, Week 6",−1.39
same,ISS7 Change from baseline LS Mean (SE),"400 mg QPM, Week 6",−6.28 (0.95)
same,ISS7 Post-baseline Mean (SD),"400 mg QPM, Week 6",10.23 (5.19)
same,ISS7 % Change difference for rilzabrutinib vs. placebo LS Mean (95% CI),"400 mg QPM, Week 7",−9.66%
same,ISS7 % Change from baseline LS Mean (SE),"400 mg QPM, Week 7",−38.52 (5.84) %
same,ISS7 Change difference for rilzabrutinib vs. placebo LS Mean (95% CI),"400 mg QPM, Week 7",−1.37
same,ISS7 Change from baseline LS Mean (SE),"400 mg QPM, Week 7",−6.37 (0.93)
same,ISS7 Post-baseline Mean (SD),"400 mg QPM, Week 7",10.60 (5.27)
same,ISS7 % Change difference for rilzabrutinib vs. placebo LS Mean (95% CI),"400 mg QPM, Week 8",−5.60%
same,ISS7 % Change from baseline LS Mean (SE),"400 mg QPM, Week 8",−38.39 (6.03) %
same,ISS7 Change difference for rilzabrutinib vs. placebo LS Mean (95% CI),"400 mg QPM, Week 8",−0.61
same,ISS7 Change from baseline LS Mean (SE),"400 mg QPM, Week 8",−6.22 (0.96)
